Reference: PubChem BioAssay (NCI)
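Briefly, cells in 96-well plates were exposed to five compound concentrations for 48 h, and endpoints were estimated by linear interpolation. GI50 marks 50% less growth. TGI marks complete inhibition of growth.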

Legend:
Assay in all cases: NCI-60 cell line screen, 48 h
[1] = tested on: MALME-3M melanoma
[2] = tested on: MDA-MB-231 breast
[3] = tested on: 786-0 renal
[4] = tested on: SR leukemia
[5] = tested on: M14 melanoma
[6] = tested on: HCC-2998 colon
[7] = tested on: NCI/ADR-RES ovarian
[8] = tested on: LOX IMVI melanoma
[9] = tested on: HOP-62 NSCLC
[10] = tested on: SK-MEL-28 melanoma

## O=C(c1ccccc1)C1N=NCC1c1ccc([N+](=O)[O-])cc1 (stereo not given)
[1]
  TGI: > 100 µM
[2]
  TGI: > 100 µM
[3]
  TGI: > 100 µM
[4]
  TGI: 84.7 µM
[5]
  TGI: > 100 µM
[6]
  TGI: > 100 µM
[7]
  TGI: > 100 µM
[8]
  TGI: > 100 µM
[9]
  TGI: > 100 µM
[10]
  TGI: > 100 µM

## COc1cc(Cl)cc(-c2nn(C(=O)NCCN3CCOCC3)cc2-c2ccncc2)c1
[1]
  GI50: 9.77 µM
  TGI: > 100 µM
[2]
  GI50: 13 µM
  TGI: > 100 µM
[3]
  GI50: 6.88 µM
  TGI: 37.9 µM
[4]
  GI50: 5.92 µM
  TGI: > 100 µM
[5]
  GI50: 5.42 µM
  TGI: 39.5 µM
[6]
  GI50: 7.77 µM
  TGI: 39.7 µM
[7]
  GI50: 2.87 µM
  TGI: > 100 µM
[8]
  GI50: 5.14 µM
  TGI: 69.9 µM
[9]
  GI50: 6.03 µM
  TGI: 63.6 µM
[10]
  GI50: 4.6 µM
  TGI: 66 µM

## CCN(Cc1ccc(F)c(F)c1)c1ccc(CO)c(Cl)c1
[1]
  GI50: 17.2 µM
  TGI: 33.3 µM
[2]
  GI50: 12.8 µM
  TGI: 26.6 µM
[3]
  GI50: 5.44 µM
  TGI: 22.9 µM
[4]
  GI50: 20.2 µM
  TGI: 52.5 µM
[5]
  GI50: 14 µM
  TGI: 30.2 µM
[6]
  GI50: 5.59 µM
  TGI: 21.6 µM
[7]
  GI50: 11.4 µM
  TGI: 27.4 µM
[8]
  GI50: 11.8 µM
  TGI: 25.7 µM
[9]
  GI50: 1.71 µM
  TGI: 17.4 µM
[10]
  GI50: 12.4 µM
  TGI: 25.1 µM

## COc1ccc(C(=O)/C=C/c2ccc(/C=C/c3cc(OC)c(OC)c(OC)c3)cc2)cc1
[1]
  GI50: 13.2 µM
  TGI: > 100 µM
[2]
  GI50: 10.2 µM
  TGI: > 100 µM
[3]
  GI50: 10.4 µM
  TGI: 71.1 µM
[4]
  GI50: 1.98 µM
  TGI: > 100 µM
[5]
  GI50: 9.61 µM
  TGI: > 100 µM
[6]
  GI50: 38.5 µM
  TGI: > 100 µM
[7]
  GI50: 5.46 µM
  TGI: > 100 µM
[8]
  GI50: 3.76 µM
  TGI: 60.9 µM
[9]
  GI50: 12.8 µM
  TGI: 63.8 µM
[10]
  GI50: 16.9 µM
  TGI: > 100 µM

## CCCCCn1c(=N)n(CC(O)COc2cccc(C)c2)c2ccccc21 (stereo not given)
[1]
  GI50: 2.39 µM
  TGI: 6.1 µM
[2]
  GI50: 5.39 µM
  TGI: 18.8 µM
[3]
  GI50: 7.74 µM
  TGI: 23.3 µM
[4]
  GI50: 2.02 µM
  TGI: 5.57 µM
[5]
  GI50: 3.26 µM
  TGI: 12.3 µM
[6]
  GI50: 2.1 µM
  TGI: 3.98 µM
[7]
  GI50: 10.5 µM
  TGI: 27.1 µM
[8]
  GI50: 3.25 µM
  TGI: 11.6 µM
[9]
  GI50: 12 µM
  TGI: 25.6 µM
[10]
  GI50: 3.95 µM
  TGI: 14.7 µM

## Cc1c(C(=O)/C=C/c2csc3ccccc23)[n+](=O)c2ccccc2n1[O-]
[1]
  GI50: 2.29 µM
  TGI: 8.06 µM
[2]
  GI50: 1.94 µM
  TGI: 4.81 µM
[3]
  GI50: 1.64 µM
  TGI: 3.09 µM
[4]
  GI50: 1.79 µM
  TGI: 8.69 µM
[5]
  GI50: 1.57 µM
  TGI: 3.21 µM
[6]
  GI50: 1.91 µM
  TGI: 3.38 µM
[7]
  GI50: 2.01 µM
  TGI: 5 µM
[8]
  GI50: 1.23 µM
  TGI: 2.47 µM
[9]
  GI50: 1.41 µM
  TGI: 2.8 µM
[10]
  GI50: 2.07 µM
  TGI: 4.81 µM

## CN1CCN(CCc2cccc(C(=O)c3cnn(-c4ccc(F)cc4)c3N)c2)CC1
[1]
  GI50: > 25 µM
  TGI: > 25 µM
[2]
  GI50: > 25 µM
  TGI: > 25 µM
[3]
  GI50: > 25 µM
  TGI: > 25 µM
[4]
  GI50: > 25 µM
  TGI: > 25 µM
[5]
  GI50: > 25 µM
  TGI: > 25 µM
[6]
  GI50: > 25 µM
  TGI: > 25 µM
[7]
  GI50: > 25 µM
  TGI: > 25 µM
[8]
  GI50: > 25 µM
  TGI: > 25 µM
[9]
  GI50: > 25 µM
  TGI: > 25 µM
[10]
  GI50: > 25 µM
  TGI: > 25 µM

## C=C1C(=O)O[C@H]2[C@H]1CC/C(COC(=O)NCc1ccccc1OC)=C\CC[C@@]1(C)O[C@@H]21
[1]
  GI50: 1.89 µM
  TGI: 3.98 µM
[2]
  GI50: 1.47 µM
  TGI: 3.49 µM
[3]
  GI50: 1.16 µM
  TGI: 2.74 µM
[4]
  GI50: 0.679 µM
  TGI: 5.19 µM
[5]
  GI50: 1.1 µM
  TGI: 2.56 µM
[6]
  GI50: 1.82 µM
  TGI: 3.52 µM
[7]
  GI50: 2.26 µM
  TGI: 6.12 µM
[8]
  GI50: 1.43 µM
  TGI: 2.96 µM
[9]
  GI50: 3.69 µM
  TGI: 14.4 µM
[10]
  GI50: 1.52 µM
  TGI: 3.61 µM

## O=CNc1c(Cl)cc2c(c1Cl)Cc1cc([N+](=O)[O-])ccc1-2
[1]
  GI50: 3.85 µM
  TGI: > 100 µM
[2]
  GI50: 8.16 µM
  TGI: 47.7 µM
[3]
  GI50: 20 µM
  TGI: > 77 µM
[4]
  GI50: 2.61 µM
  TGI: > 63.1 µM
[5]
  GI50: 2.92 µM
  TGI: > 54.6 µM
[6]
  GI50: 5.84 µM
  TGI: 39.9 µM
[7]
  GI50: 4.49 µM
  TGI: 38.3 µM
[8]
  GI50: 4.59 µM
  TGI: > 54.7 µM
[9]
  GI50: 5.76 µM
  TGI: > 67.5 µM
[10]
  GI50: 20.2 µM
  TGI: > 100 µM

## O=C(c1ccc(F)cc1)c1cccc(C(=O)c2ccc(F)cc2)n1
[1]
  TGI: > 100 µM
[2]
  TGI: > 100 µM
[3]
  TGI: 77.1 µM
[4]
  TGI: > 100 µM
[5]
  TGI: > 100 µM
[6]
  TGI: > 100 µM
[7]
  TGI: > 100 µM
[8]
  TGI: > 100 µM
[9]
  TGI: 48.6 µM
[10]
  TGI: > 100 µM

## COC(=O)[C@H](Cc1cn(C)cn1)NC(=O)[C@H](Cc1c[nH]c2ccccc12)NC(=O)Nc1cc(C(F)(F)F)cc(C(F)(F)F)c1
[1]
  GI50: > 10 µM
  TGI: > 10 µM
[2]
  GI50: > 10 µM
  TGI: > 10 µM
[3]
  GI50: > 10 µM
  TGI: > 10 µM
[4]
  GI50: > 10 µM
  TGI: > 10 µM
[5]
  GI50: > 10 µM
  TGI: > 10 µM
[6]
  GI50: > 10 µM
  TGI: > 10 µM
[7]
  GI50: > 10 µM
  TGI: > 10 µM
[8]
  GI50: > 10 µM
  TGI: > 10 µM
[9]
  GI50: > 10 µM
  TGI: > 10 µM
[10]
  GI50: > 10 µM
  TGI: > 10 µM

## Nc1ccn(Cc2ccc(C34CC5CC(CC(C5)C3)C4)c(O)c2)c(=O)n1
[1]
  GI50: > 100 µM
  TGI: > 100 µM
[2]
  GI50: > 100 µM
  TGI: > 100 µM
[3]
  GI50: 47.7 µM
  TGI: > 100 µM
[4]
  GI50: > 100 µM
  TGI: > 100 µM
[5]
  GI50: > 100 µM
  TGI: > 100 µM
[6]
  GI50: 32.1 µM
  TGI: > 100 µM
[7]
  GI50: > 100 µM
  TGI: > 100 µM
[8]
  GI50: > 100 µM
  TGI: > 100 µM
[9]
  GI50: 22.5 µM
  TGI: 76.4 µM
[10]
  GI50: > 100 µM
  TGI: > 100 µM

## COc1cc(C2c3cc4c(cc3OC(N3CCCC3)C2C)OCO4)cc(OC)c1OC (stereo not given)
[1]
  TGI: 34.7 µM
[2]
  TGI: 9.32 µM
[3]
  TGI: 30 µM
[4]
  TGI: > 17.1 µM
[5]
  TGI: 12.8 µM
[6]
  TGI: 4.32 µM
[7]
  TGI: 0.531 µM
[8]
  TGI: 25.9 µM
[9]
  TGI: 22.5 µM
[10]
  TGI: > 100 µM
